Source: ChEMBL document CHEMBL3400112, “Design, syntheses, and pharmacological characterization of 17-cyclopropylmethyl-3,14β-dihydroxy-4,5α-epoxy-6α-(isoquinoline-3'-carboxamido)morphinan analogues as opioid receptor ligands” (Bioorg Med Chem, 2015)
Calls of active or inactive are those of the source. The calls are words filed in the database; no cut-off is given here.

Legend:
Mus musculus [1] = species: Mus musculus; experiment: Selectivity ratio of Ki for mouse DOR to Ki for mouse MOR
Mus musculus [2] = species: Mus musculus; experiment: Selectivity ratio of Ki for mouse KOR to Ki for mouse MOR
Mu-type opioid receptor [3] = molecular target: T1, Mu-type opioid receptor (Mus musculus, UniProt P42866); experiment: Displacement of [3H]naloxane from mouse MOR expressed in CHO cells after […]; type: cell-based
[4] = molecular target: T2, Kappa-type opioid receptor (Mus musculus, UniProt P33534); experiment: Displacement of [3H]diprenorphine from mouse KOR expressed in CHO cells after […]; type: cell-based
[5] = molecular target: T3, Delta-type opioid receptor (Mus musculus, UniProt P32300); experiment: Displacement of [3H]naltrindole from mouse DOR expressed in CHO cells after […]; type: cell-based
Mu-type opioid receptor [6] = molecular target: T1, Mu-type opioid receptor; experiment: Stimulation of mouse MOR expressed in CHO cells after […] by [35S]GTPgammaS binding assay; type: functional, cell-based
[7] = molecular target: Mu-type opioid receptor (Mus musculus) (UniProt P42866); experiment: Stimulation of mouse MOR expressed in CHO cells after […] by [35S]GTPgammaS binding assay relative to DAMGO; type: functional, cell-based
Mus musculus [8] = experiment: Reversal of morphine-induced antinociceptive activity in Swiss-Webster mouse at 1 mg/kg, sc administered 5 mins prior to morphine challenge measured after 20 mins by warm water tail-flick test relative to control; type: functional
Mus musculus [9] = experiment: Antinociceptive activity in Swiss-Webster mouse at 10 mg/kg, sc after 20 mins by warm water tail-flick test relative to control; type: functional; conditions: route subcutaneous
Mus musculus [10] = experiment: Reversal of morphine-induced antinociceptive activity in sc dosed Swiss-Webster mouse administered 5 mins prior to morphine challenge measured after 20 mins by warm water tail-flick test relative to control; type: functional
[11] = molecular target: T2, Kappa-type opioid receptor; experiment: Agonist activity at mouse KOR expressed in CHO cells after […] by [35S]GTPgammaS binding assay; type: functional, cell-based
[12] = molecular target: Kappa-type opioid receptor (Mus musculus) (UniProt P33534); experiment: Agonist activity at mouse KOR expressed in CHO cells after […] by [35S]GTPgammaS binding assay relative to (+/-)-trans-U50488; type: functional, cell-based
[13] = molecular target: T3, Delta-type opioid receptor; experiment: Agonist activity at mouse DOR expressed in CHO cells after […] by [35S]GTPgammaS binding assay; type: functional, cell-based
[14] = molecular target: Delta-type opioid receptor (Mus musculus) (UniProt P32300); experiment: Agonist activity at mouse DOR expressed in CHO cells after […] by [35S]GTPgammaS binding assay relative to SNC80; type: functional, cell-based
Delta-type opioid receptor (Mus musculus), sequence (P32300 whole entry): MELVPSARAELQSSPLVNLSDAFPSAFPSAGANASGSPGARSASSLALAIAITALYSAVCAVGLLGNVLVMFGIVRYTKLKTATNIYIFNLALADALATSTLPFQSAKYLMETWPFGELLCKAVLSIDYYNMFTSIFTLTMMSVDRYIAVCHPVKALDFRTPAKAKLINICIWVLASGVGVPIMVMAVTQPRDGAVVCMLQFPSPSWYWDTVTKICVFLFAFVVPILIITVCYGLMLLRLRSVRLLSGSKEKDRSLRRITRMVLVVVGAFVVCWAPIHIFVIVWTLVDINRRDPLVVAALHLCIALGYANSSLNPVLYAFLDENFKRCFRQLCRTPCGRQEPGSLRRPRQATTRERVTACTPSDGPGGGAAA

T3 sequence (P32300 whole entry): as above
T1 sequence (P42866 whole entry): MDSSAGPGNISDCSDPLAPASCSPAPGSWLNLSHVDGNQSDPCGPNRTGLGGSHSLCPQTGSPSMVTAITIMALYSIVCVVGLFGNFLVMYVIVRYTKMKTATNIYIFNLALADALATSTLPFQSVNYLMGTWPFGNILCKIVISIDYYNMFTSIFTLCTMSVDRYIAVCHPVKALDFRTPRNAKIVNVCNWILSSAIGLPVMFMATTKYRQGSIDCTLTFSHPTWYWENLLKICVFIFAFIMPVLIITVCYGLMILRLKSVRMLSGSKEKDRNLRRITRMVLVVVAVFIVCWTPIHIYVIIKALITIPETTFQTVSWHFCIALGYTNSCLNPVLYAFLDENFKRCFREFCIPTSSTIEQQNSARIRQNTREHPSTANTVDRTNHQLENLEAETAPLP
Mu-type opioid receptor (Mus musculus), sequence (P42866 whole entry): as above
T2 sequence (P33534 whole entry): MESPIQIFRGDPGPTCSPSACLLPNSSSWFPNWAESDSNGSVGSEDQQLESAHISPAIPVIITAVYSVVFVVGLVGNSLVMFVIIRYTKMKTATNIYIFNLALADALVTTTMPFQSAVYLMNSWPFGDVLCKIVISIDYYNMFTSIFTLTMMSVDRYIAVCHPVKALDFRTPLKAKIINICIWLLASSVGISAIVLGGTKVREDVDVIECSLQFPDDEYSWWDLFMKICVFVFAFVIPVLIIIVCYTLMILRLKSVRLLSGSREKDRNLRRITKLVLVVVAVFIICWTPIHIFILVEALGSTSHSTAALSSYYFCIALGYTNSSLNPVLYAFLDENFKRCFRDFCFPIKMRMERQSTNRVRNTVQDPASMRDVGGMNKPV
Kappa-type opioid receptor (Mus musculus), sequence (P33534 whole entry): as above

SMILES	Ratio Ki (Mus musculus [1])	Ratio Ki (Mus musculus [2])	Ki (Mu-type opioid receptor [3]) [nM]	Ki [4] [nM]	Ki [5] [nM]	EC50 (Mu-type opioid receptor [6]) [nM]	Emax [7] [%]	other results
O=C(CCc1cc2ccccc2cn1)N[C@H]1CC[C@@]2(O)[C@H]3Cc4ccc(O)c5c4[C@@]2(CCN3CC2CC2)[C@H]1O5	2.4	12	–	–	–	–	–	–
O=C(Cc1cc2ccccc2cn1)N[C@H]1CC[C@@]2(O)[C@H]3Cc4ccc(O)c5c4[C@@]2(CCN3CC2CC2)[C@H]1O5	0.9	10	–	–	–	–	–	–
CN(C)c1ccc2cc(C(=O)N[C@H]3CC[C@@]4(O)[C@H]5Cc6ccc(O)c7c6[C@@]4(CCN5CC4CC4)[C@H]3O7)ncc2c1	20	16	4.4	88	68.6	4.7	6.32	Activity (Mus musculus [8]): inactive
Cc1nc(C(=O)N[C@H]2CC[C@@]3(O)[C@H]4Cc5ccc(O)c6c5[C@@]3(CCN4CC3CC3)[C@H]2O6)cc2ccccc12	–	–	–	–	–	–	–	MPE (Mus musculus [9]): <20%
COc1cc2cnc(C(=O)N[C@H]3CC[C@@]4(O)[C@H]5Cc6ccc(O)c7c6[C@@]4(CCN5CC4CC4)[C@H]3O7)cc2cc1OC	4.6	5.2	13.4	61	69.2	85.2	14	–
CN(C)c1ccc2c(c1)CN(C)C(C(=O)N[C@H]1CC[C@@]3(O)[C@H]4Cc5ccc(O)c6c5[C@@]3(CCN4CC3CC3)[C@H]1O6)C2 (some centres undefined)	2.7	2.5	1.79	4.91	4.5	11.4	26.2	–
O=C(N[C@H]1CC[C@@]2(O)[C@H]3Cc4ccc(O)c5c4[C@@]2(CCN3CC2CC2)[C@H]1O5)c1ncc2ccccc2n1	4.6	71	–	–	–	–	–	–
O=C(N[C@H]1CC[C@@]2(O)[C@H]3Cc4ccc(O)c5c4[C@@]2(CCN3CC2CC2)[C@H]1O5)c1cc2ccccc2cn1	–	–	–	–	–	–	–	AD50 (Mus musculus [10]): 0.45 mg/kg; EC50 [11]: 10.9 nM; Emax [12]: 13.1%; EC50 [13]: 98.6 nM; Emax [14]: 53.5%
